Experimental data as given in ChEMBL document CHEMBL1201862, “PubChem BioAssay data set” (2004).
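Method: 48-hour compound exposure of cells in 96-well plates, five concentrations, linear interpolation of endpoints. GI50 marks 50% less growth.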 Active and inactive are the calls of the source. Rule as the data show it: active = GI50 up to about 1.1 µM and inactive = higher.

What was measured:
Test in all cases: NCI-60 cell line screen, 48 h
A498 = tested on: A498
ACHN = tested on: ACHN
CAKI-1 = tested on: CAKI-1
Hs-578T = tested on: Hs-578T
LOX IMVI = tested on: LOX IMVI
M14 = tested on: M14
MDA-N = tested on: MDA-N
MOLT-4 = tested on: MOLT-4
Malme-3M = tested on: Malme-3M
OVCAR-8 = tested on: OVCAR-8
SF-539 = tested on: SF-539
SK-MEL-28 = tested on: SK-MEL-28
SN12C = tested on: SN12C
SNB-19 = tested on: SNB-19
SNB-75 = tested on: SNB-75
SR = tested on: SR
NCI-H226 = tested on: NCI-H226
OVCAR-4 = tested on: OVCAR-4

Measured: GI50

CC(C)(C)OC(=O)NC(Cc1ccc(OCc2ccccc2)cn1)C(=O)N1CCCCC1 (stereo not drawn)
inactive: A498 34.5 µM | ACHN 41.4 µM | CAKI-1 60.4 µM | Hs-578T 67.3 µM | LOX IMVI 25.4 µM | M14 37.8 µM | MDA-N 28.1 µM | MOLT-4 19.5 µM | Malme-3M 40.5 µM | OVCAR-8 35.6 µM | SF-539 41.3 µM | SK-MEL-28 54.3 µM | SN12C 37.8 µM | SNB-19 80.5 µM | SNB-75 20.5 µM | SR 28.6 µM

Cc1ccn2c(CCc3nnc4cc(C)ccn34)nnc2c1
inactive: A498 > 100 µM | ACHN > 100 µM | CAKI-1 > 100 µM | Hs-578T > 100 µM | M14 > 100 µM | MDA-N > 100 µM | MOLT-4 > 100 µM | Malme-3M > 100 µM | NCI-H226 > 100 µM | OVCAR-4 > 100 µM | OVCAR-8 > 100 µM | SF-539 > 100 µM | SK-MEL-28 > 100 µM | SN12C > 100 µM | SNB-19 > 100 µM | SNB-75 > 100 µM | SR 15 µM

Cc1c(Cl)ccc2c(=O)c3cccc(CC(=O)O)c3oc12
inactive: A498 > 100 µM | ACHN > 100 µM | CAKI-1 > 100 µM | Hs-578T > 100 µM | LOX IMVI > 100 µM | M14 > 100 µM | MDA-N > 100 µM | MOLT-4 > 100 µM | Malme-3M > 100 µM | NCI-H226 > 100 µM | OVCAR-4 > 100 µM | OVCAR-8 > 100 µM | SF-539 > 100 µM | SK-MEL-28 > 100 µM | SN12C > 100 µM | SNB-19 > 100 µM | SR > 100 µM

CC1NCCC(CC(=O)O)C1CC(=O)O (stereo not drawn)
inactive: A498 > 100 µM | ACHN > 100 µM | CAKI-1 > 100 µM | Hs-578T > 100 µM | LOX IMVI > 100 µM | M14 > 100 µM | MDA-N > 100 µM | Malme-3M > 100 µM | NCI-H226 > 100 µM | OVCAR-4 > 100 µM | OVCAR-8 > 100 µM | SK-MEL-28 > 100 µM | SN12C > 100 µM | SNB-19 > 100 µM | SNB-75 97.9 µM | SR > 100 µM

C/C=C\C(C)=C/C(C)C(=O)CC(O)CC1CC(=O)NC(=O)C1 (stereo not drawn)
inactive: A498 28.6 µM | ACHN 17.5 µM | CAKI-1 7.13 µM | Hs-578T 4.09 µM | LOX IMVI 20.6 µM | M14 13.6 µM | MDA-N 19.5 µM | MOLT-4 4.79 µM | NCI-H226 35.5 µM | OVCAR-4 19.1 µM | OVCAR-8 8.71 µM | SF-539 14 µM | SK-MEL-28 34.4 µM | SN12C 13 µM | SNB-19 17.8 µM | SNB-75 5.27 µM | SR 10.9 µM
